The record followed here is publication PMC7421900, “Structural, in silico, and functional analysis of a Disabled-2-derived peptide for recognition of sulfatides” (Scientific Reports, 2020).

For test [1], the target named is T1, Dab2 SBP (Homo sapiens, UniProt P98082).
T1 construct: pGEX6P1; vector residues GPLGS remain at N-terminus of cleaved peptide
T1 sequence (P98082 24-58): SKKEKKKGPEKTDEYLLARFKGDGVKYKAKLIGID
Briefly: SPR, L1 sensorchip, sulfatide liposomes captured. The note with it: apparent KD; peptide 1-80 µM over 100-nm DPPC:DPPE:cholesterol:sulfatide (1:1:1:4) liposomes; pH 7.4, 100 mM NaCl, room temperature; brain sulfatides of mixed acyl chains. Format: binding. In general terms: Surface plasmon resonance follows binding to a sensor surface in real time, without labels.

The target of test [2] is T2, Dab2 SBP (Homo sapiens, UniProt P98082, Y38A).
T2 construct: pGEX6P1; vector residues GPLGS remain at N-terminus of cleaved peptide
T2 sequence (P98082 24-58 Y38A): T1 sequence (P98082 24-58) with Y15A
Nature of the test: SPR, L1 sensorchip, sulfatide liposomes captured. The conditions noted are these: apparent KD; peptide 1-80 µM over 100-nm DPPC:DPPE:cholesterol:sulfatide (1:1:1:4) liposomes; pH 7.4, 100 mM NaCl, room temperature; brain sulfatides of mixed acyl chains. The format is binding.

Positions count from the first letter of the chain named.

Consider sulfatide, for which the Kd amounted to 49.8 ± 5.4 µM in test [1] and 77 ± 6.6 µM in test [2].
